Experimental data published in publication PMC10135050, “Neutralizing Carbapenem Resistance by Co-Administering Meropenem with Novel β-Lactam-Metallo-β-Lactamase Inhibitors” (Antibiotics, 2023).
In brackets after ≈: the same amount, converted by molar mass. Entries after “also recorded” stand apart in the source; their conditions may differ. Read-outs that look alike come from different tables or passages of the source.

What was measured:
[1] = molecular target: T1, Recombinant human glyoxylase II (Glo2) (Homo sapiens, UniProt Q16775); test: Non-specific binding to zinc in non-MBLs, glyoxylase II activity; assay type: biochemical; conditions: concentrations up to 500 µM
T1 construct: purchased BioVision Inc., Waltham, MA, USA
Source text: Metal chelators are known to suffer from off-target specificity and as a result have been criticized as potential MBLIs in vivo [44].
The methodology has been previously described. EDTA (purchased from Merck KGaA, Darmstadt, Germany) was included as a positive control.

MTT cell viability assay = assay type: cell-based, human; conditions: human, HepG2 cells, 6 h, read-out: IC50 cytotoxicity
Description: (§1) HepG2 cells were cultured in 25 mL cell culture flasks using Eagle’s minimum essentials medium (EMEM) supplemented with 10% fetal bovine serum, 1% pen-strep-fungizone and 1% L-glutamine, maintained in a humidified incubator (37 °C, 5% CO2) until approximately 80% confluence.
(§2) The MTT assay was one of the methods used to determine in vitro cell viability of BP on HepG2 cells. HepG2 cells (15,000 cells/well) were seeded into a 96-well microtiter plate and allowed to adhere overnight (37 °C, 5% CO2). Thereafter, the cells were incubated (37 °C, 5% CO2) with a range of BP concentrations (0, 1, 8, 10, 50, 100 and 200 μg/mL) in triplicate for 6 h. After the 6 h incubation, the cells were washed with 0.1 M phosphate-buffered saline (PBS) and incubated with MTT salt solution (5 mg/mL in 0.1 M PBS) and 100 μL CCM for 4 h (37 °C, 5% CO2). The MTT salt solution was removed, and DMSO (100 μL/well) was added and incubated for 1 h. The optical density was measured using a spectrophotometer (Bio-Tek μQuant) at 570/690 nm. Results are expressed as % cell viability versus BP2 concentration (μg/mL).

HepG2 cells = test: MTT cell viability assay; assay type: cell-based, human
Description: as §1, §2

[2] = tested on: Escherichia coli TWA (IMP-8); test: MIC, broth microdilution and checkerboard assay; assay type: cell-based
Description: (§3) The Minimum Inhibitory Concentration (MIC) of meropenem BP2 was determined utilizing the broth microdilution assay, as described by the Clinical and Laboratory Standards Institute (CLSI) antimicrobial susceptibility guidelines. The mono-therapeutic effect of each antibiotic and MBLI was evaluated across a panel of MBL-producing Enterobacterales.
(§4) The drug susceptibility profile of meropenem in combination with BP2 was studied using the checkerboard assay. This assay was used to ascertain the effect of two drugs on antimicrobial resistance targeting CRE strains. The assay was performed according to the protocol described previously and was under CLSI antimicrobial susceptibility guidelines. Briefly, twofold dilutions of meropenem with each chelator were made in Cation-adjusted Mueller Hinton Broth (CAMHB) in a 96-well microtiter plate. A 0.5 McFarland-standardized bacterial inoculum was added to each well to obtain a final volume of 100 µL per well. Thereafter, plates were incubated at 37 °C for 18 h under aerobic conditions. The checkerboard assays were performed in triplicate. The MIC was determined as the lowest concentration at which no visible growth was present. The fractional inhibitory concentration index (FICI) was calculated for each combination according to the equation FICI = FICa (MIC of drug A in combination/MIC of drug A alone) + FICb (MIC of drug B in combination/MIC of drug B alone). The FICI was interpreted as follows: synergy, FICI ≤ 0.5; additive 0.5–1; indifference, […] FICI < 4; and antagonism, FICI ≥ 4 [61].

[3] = tested on: Serratia marcescens BM 20 (VIM-2); test: MIC, broth microdilution and checkerboard assay; assay type: cell-based
Description: as §3, §4

[4] = tested on: Klebsiella pneumoniae DIH (VIM-19); test: MIC, broth microdilution and checkerboard assay; assay type: cell-based
Description: as §3, §4

[5] = tested on: Escherichia coli BM 14 (VIM-1); test: MIC, broth microdilution and checkerboard assay; assay type: cell-based
Description: as §3, §4

[6] = tested on: Klebsiella pneumoniae TWA (IMP-8); test: MIC, broth microdilution and checkerboard assay; assay type: cell-based
Description: as §3, §4

[7] = tested on: Enterobacter cloacae IR 386 (NDM-1); test: MIC, broth microdilution and checkerboard assay; assay type: cell-based
Description: as §3, §4

[8] = tested on: Escherichia coli DIH (VIM-19); test: MIC, broth microdilution and checkerboard assay; assay type: cell-based
Description: as §3, §4

[9] = tested on: Escherichia coli FEK (NDM-4); test: MIC, broth microdilution and checkerboard assay; assay type: cell-based
Description: as §3, §4

[10] = tested on: Enterobacter cloacae BM 5 (IMP-1); test: MIC, broth microdilution and checkerboard assay; assay type: cell-based
Description: as §3, §4

[11] = tested on: Providencia stuartii PSTU (NDM-1); test: MIC, broth microdilution and checkerboard assay; assay type: cell-based
Description: as §3, §4

K. pneumoniae NDM = test: Murine thigh infection model; assay type: in vivo, Klebsiella pneumoniae; conditions: neutropenic BALB/c mice, 100 mg/kg IP every 2 h
Description: A murine thigh infection model described by Michail et al. was performed with minor modifications. Male Bragg inbred albino c-strain (BALB/c) mice weighing 20–25 g (n = 90) were used in this study. Each of the three groups constituted n = 30 mice, with n = 6 mice receiving treatment every two hours. Prior to infection, mice were IP treated with 150 mg/kg cyclophosphamide on day one and 100 mg/kg on day four of the trial. This was performed to induce neutropenia in the mice. Neutropenia was confirmed by a neutrophil count of <100/mm^3. On day five of the trial, 0.1 mL inoculum containing 10^6–10^8 cfu/mL of K. pneumoniae NDM were IM injected into the right thigh of the mice to initiate infection. Meropenem monotherapy, BP2 + meropenem combination therapy, or normal saline was administered every two hours in an eight-hour treatment period. Mice were euthanized by isoflurane overdose at 2 h, 4 h, 6 h and 8 h post dosing. The right thigh muscle was then aseptically removed and homogenized in 5 mL PBS. Homogenates were spread onto Mueller–Hinton agar and MacConkey agar plates, followed by incubation at 35 °C for 24 h and enumeration of the cfu/mL.

CON=C(C(=O)NC1C(=O)N2C(C(=O)O)=C(COC(C)=O)CSC12)c1csc(NC(=O)CC(C(=O)OC)N2CCN(CC(=O)O)CCN(CC(=O)O)CC2)n1 (stereo in doubt) [BP2]
Glyoxylase II activity [1]: did not reduce the activity; also recorded: did not interact | IC50 at 6 h (MTT cell viability assay): 62 µg/mL (≈ 76.3 µM) | Cell viability compared to the control (HepG2 cells; 1 µg/mL and 10 µg/mL): significantly increased | Cell viability compared to the control (HepG2 cells; 200 µg/mL): significant decrease | Cell viability compared to the control (HepG2 cells; 50–100 µg/mL): not significantly altered | MIC ([2]; read-out: MIC BP2 Alone): > 256 µg/mL | MIC ([3]; read-out: MIC BP2 Alone): > 256 µg/mL | MIC ([4]; read-out: MIC BP2 Alone): > 256 µg/mL | MIC ([5]; read-out: MIC BP2 Alone): > 256 µg/mL | MIC ([6]; read-out: MIC BP2 Alone): > 256 µg/mL | MIC ([7]; read-out: MIC BP2 Alone): > 256 µg/mL | MIC ([8]; read-out: MIC BP2 Alone): > 256 µg/mL | MIC ([9]; read-out: MIC BP2 Alone): > 256 µg/mL | MIC ([10]; read-out: MIC BP2 Alone): > 256 µg/mL | MIC ([11]; read-out: MIC BP2 Alone): > 256 µg/mL

C[C@@H](O)[C@H]1C(=O)N2C(C(=O)O)=C(S[C@@H]3CN[C@H](C(=O)N(C)C)C3)[C@H](C)[C@H]12 [Meropenem]
Best Log10 Cfu/ml (K. pneumoniae NDM; treatment time 2 h): 7.2 Log10 Cfu/ml | Mean Log10 Cfu/ml (K. pneumoniae NDM; treatment time 2 h): 6.8 Log10 Cfu/ml | Best Log10 Cfu/ml (K. pneumoniae NDM; treatment time 4 h): 8 Log10 Cfu/ml | Mean Log10 Cfu/ml (K. pneumoniae NDM; treatment time 4 h): 8.3 Log10 Cfu/ml | Best Log10 Cfu/ml (K. pneumoniae NDM; treatment time 6 h): 8.3 Log10 Cfu/ml | Mean Log10 Cfu/ml (K. pneumoniae NDM; treatment time 6 h): 8.4 Log10 Cfu/ml | Best Log10 Cfu/ml (K. pneumoniae NDM; treatment time 8 h): 8.3 Log10 Cfu/ml | Mean Log10 Cfu/ml (K. pneumoniae NDM; treatment time 8 h): 8.2 Log10 Cfu/ml | MIC ([2]; E. coli TWA IMP-8, alone, read-out: MIC MEM Alone): 8 µg/mL | MIC ([3]; S. marcescens BM 20 VIM-2, alone, read-out: MIC MEM Alone): > 32 µg/mL | MIC ([4]; K. pneumoniae DIH VIM-19, alone, read-out: MIC MEM Alone): 32 µg/mL | MIC ([5]; E. coli BM 14 VIM-1, alone, read-out: MIC MEM Alone): 32 µg/mL | MIC ([6]; K. pneumoniae TWA IMP-8, alone, read-out: MIC MEM Alone): 8 µg/mL | MIC ([7]; E. cloacae IR 386 NDM-1, alone, read-out: MIC MEM Alone): 32 µg/mL | MIC ([8]; E. coli DIH VIM-19, alone, read-out: MIC MEM Alone): > 32 µg/mL | MIC ([9]; E. coli FEK NDM-4, alone, read-out: MIC MEM Alone): > 32 µg/mL | MIC ([10]; read-out: MIC MEM Alone): > 32 µg/mL | MIC ([11]; P. stuartii PSTU NDM-1, alone, read-out: MIC MEM Alone): 32 µg/mL
